Measurements: the supplement of paper PMC8882468

Experiments:
Experiment in all cases: CTG-3D luminescence at 96 h relative to day-0 seeding control (ratio to day 0); higher = more growth / less cytotoxicity
HCI-025 = test system: HCI-025 (organoid from a breast cancer xenograft)
Experimental: (§1)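 PDxO 3D drug screen (set 2), 8-point dose, 96 h; CTG-3D luminescence normalised to day-0 seeding control (mean of 4 wells each).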

HCI-017.E2 = test system: HCI-017.E2 (organoid from an ER-positive breast cancer xenograft)
Experimental: as §1

HCI-023 = test system: HCI-023 (organoid from a triple-negative breast cancer xenograft)
Experimental: as §1

HCI-012 = test system: HCI-012 (organoid from a breast cancer xenograft)
Experimental: as §1

HCI-027 = test system: HCI-027 (organoid from a triple-negative breast cancer xenograft)
Experimental: as §1

CC/C(=C(\c1ccc(O)cc1)c1ccc(OCCN(C)C)cc1)c1ccccc1 [4-hydroxytamoxifen]
CTG-3D luminescence at 96 h
Details | 12.5 pM | 0.00025 µM | 0.005 µM | 0.1 µM | 1 µM | 10 µM | 100 µM | 625 fM
HCI-012, days in culture: 214 | 3.56 | 3.14 | 1.65 | 2.13 | 2.18 | 0.301 | 0.00686 | 1.93
HCI-012, days in culture: 243 | 2.35 | 2.75 | 1.8 | 2.23 | 1.49 | 1.87 | 0.00753 | 2.29
HCI-012, days in culture: 256 | 1.59 | 1.79 | 2.4 | 3.03 | 2.03 | 1.01 | -0.000283 | 2.33
HCI-012, days in culture: 284 | 2.11 | 2.32 | 1.6 | 2.02 | 1.71 | 1.47 | 0.00771 | 3.35
HCI-017.E2, days in culture: 85 | 2.08 | 1.78 | 1.81 | 2.09 | 1.49 | 1.08 | 0.0372 | 2.06
HCI-023, days in culture: 223 | 2.56 | 1.54 | 1.73 | 1.73 | 1.16 | 1.64 | 0.0104 | 2.1
HCI-023, days in culture: 238 | 1.29 | 1.34 | 1.35 | 1.29 | 1.4 | 1.46 | 0.00895 | 1.43
HCI-023, days in culture: 252 | 2.34 | 1.72 | 1.66 | 1.88 | 1.73 | 1.63 | 0.00241 | 1.66
HCI-025, days in culture: 175 | 1.51 | 1.63 | 1.71 | 2.13 | 2.44 | 1.28 | 0.0136 | 1.6
HCI-025, days in culture: 189 | 2.13 | 1.92 | 1.2 | 1.78 | 1.33 | 0.709 | 0.00308 | 2.68
HCI-025, days in culture: 212 | 1.57 | 0.956 | 1.22 | 1.48 | 0.341 | 1.41 | 0.0176 | 1.14
HCI-025, days in culture: 224 | 2.08 | 1.8 | 1.69 | 1.65 | 2.16 | 0.525 | 0.00432 | 1.85
HCI-027, days in culture: 145 | 1.3 | 2.12 | 1.24 | 1.83 | 1.18 | 0.699 | 0.00408 | 1.73
HCI-027, days in culture: 158 | 2.04 | 2.76 | 2.17 | 2.08 | 1.97 | 1.36 | 0.00947 | 4.26
HCI-027, days in culture: 164 | 1.94 | 2.01 | 1.46 | 2.16 | 1.19 | 1.86 | 0.0151 | 1.7
HCI-027, days in culture: 176 | 3.64 | 3.33 | 1.45 | 1.08 | 2.78 | 0.382 | 0.00762 | 2.5
HCI-027, days in culture: 186 | 1.39 | 2.63 | 2.25 | 1.45 | 0.447 | 0.154 | 0.0028 | 2.27

HCI-017.E2
Details | CTG-3D luminescence at 96 h
12.5 pM | 2.22
0.00025 µM | 2.39
0.005 µM | 2.07
0.1 µM | 2.2
1 µM | 1.83
10 µM | 1.95
100 µM | 0.0156
625 fM | 2.35
